{"source": "patent US6635242B2", "about": "“Broad spectrum microbicidal and spermicidal compositions, devices, and methods” (The Pennsylvania State University, priority 1998, dated 2003)", "key": {"BPV-1": {"system": "BPV-1", "test": "BPV-1 focus assay in C127 mouse cells", "assay_type": "cell-based, bovine papillomavirus", "settings": "bovine papillomavirus", "experimental": "Cell-free stocks of BPV-1 were prepared by extraction (10% w/v) of epidermal bovine warts in phosphate buffered saline (PBS). In order to detect the transforming ability of BPV-1, C127 mouse cells were seeded (3×10^5 cells per flask) into T-25^2 flasks. After 24 hr of growth, subconfluent cells were infected with BPV-1. For the positive controls, stock virus (20 μl) was diluted (1:1) with PBS, incubated at 37° C. for 10 min, diluted […] and then added (100 μl ) into the 5 ml of cell culture medium present on the cells. Cells were refed at 24 hours and subsequently 2 times weekly. The presence of morphologically transformed foci was counted after 2 weeks and then again at 3 weeks.\nVirus inactivations were carried out in vitro by addition of concentrated SDS solutions to the virus stocks (20 μl of virus plus 20 μl of detergent) and subsequent incubation at 37° C. for 10 or 30 min as indicated. Following inactivation, virus was diluted 1000 fold to lower the detergent concentration and the preparations were immediately used for infection as above.\nAlthough SDS could effectively reduce HSV-2 infectivity, it remained possible that this destruction was mediated by envelope removal. Because papillomaviruses are non-enveloped, the possibility remained that SDS would fail to inactivate these viruses. We utilized BPV-1 as a prototype PV because of its ability to rapidly (within 2 weeks) form multi-layered transformed foci in mouse fibroblasts in an in vitro assay. Table 3 describes results of two separate experiments in which stocks of BPV-1 were incubated at 37° C. with various concentrations of SDS (5% to 5×10^−4%) for either 10 or 30 minutes, diluted to lower the SDS concentration (to avoid cell toxicity) and then used to infect C127 cells. […] Table 4 lists several other commercially available detergents that were tested for possible inactivation of BPV-1. None of these detergents inactivated the morphologic transforming properties of the BPV-1."}, "[1]": {"system": "lymphocyte-, macrophage- and dual-tropic strains of HIV-1 (IIIB, BaL, 89.6)", "test": "Cell-free HIV-1 inactivation (FIG. 5)", "assay_type": "cell-based, human immunodeficiency virus", "settings": "HCLB or P4-R5 indicator cells", "experimental": "Cell-free HIV-1 strain IIIB (A) was treated with N-9, C31G, or SDS, and used to infect HCLB cells. Cell-free HIV-1 strains BaL (M tropic) (B) and 89.6 (dual tropic) (C) were treated with N-9, C31G or SDS,and used to infect P4-R5 cells. Assays were conducted. Infectivity following exposure is expressed as a percentage relative to the number of β-gal-positive cells in duplicate wells infected with virus incubated in the absence of a microbicidal compound. Results shown in FIG. 5 are the average cell counts for a total of four wells per concentration in two independent experiments."}, "[2]": {"system": "HIV-1-infected SupT1 cells", "test": "Cell-associated HIV-1 infectivity (FIG. 6)", "assay_type": "cell-based, human immunodeficiency virus", "settings": "10 min at 37° C., co-culture with HCLB cells, FIG. 6(a)", "experimental": "(A) SupT1 T lymphocytes (8×10^4)infected 5 days prior with HIV-1 strain IIIB were pelleted and resuspended in new media to remove cell-free virus. After exposure to selected concentrations of each microbicide for 10 min at 37° C., the cells were diluted 1:10 and co-cultured with HCLB cells for 2 h. Following one wash with PBS to remove the infected lymphocytes, the indicator cells were cultured and assayed. Infectivity following exposure is expressed as a percentage relative to the number of β-gal-positive cells in duplicate wells infected with HIV-1 infected SupT1 cells incubated in the absence of a microbicidal compound. Results shown in FIG. 6(a) are the average cell counts for a total of four wells per concentration in two independent experiments. (B) SupT1 T lymphocytes (8×10^4) were incubated with selected concentrations of each microbicide for 10 min at 37° C., and then diluted 1:10 with new media. Following a 2 h incubation period, the cells were assessed for viability. Cell survival after treatment is expressed as the fraction of viable cells relative to the number of mock-exposed cells. Results shown in FIG. 6(b) are the average of two experiments in which triplicate wells for each concentration were assayed."}, "CRPV": {"system": "CRPV", "assay_type": "in vivo, cottontail rabbit papillomavirus", "settings": "10^−2 dilution of CRPV stock, 0.05% N-9, 37° C. 10 min; 10 sites each, 3-6 weeks"}, "Bovine sperm": {"system": "Bovine sperm", "test": "Bovine sperm motility following detergent addition", "assay_type": "cell-based", "parameters": "key to Bovine Sperm Motility Following Detergent Addition: +++: Vigorous swimming; ++/−: Many swimmers/some dead; +/−: Occasional swimmer/most dead; −: All dead", "excerpt": "The following data represent an in vitro experiment to test the efficacy of SDS and other detergents as spermicidal agents. Frozen samples of bull semen were obtained, thawed and placed in a test tube. Aliquots were taken out and put in a separate test tube where they were mixed with detergent (SDS, C31G, N-9 or a mixture of SDS and N-9) to a final percent as listed in Tables 8 and 9 below. After mixing, the samples were immediately placed on a microscope slide and visually examined for sperm movement. The experiment was conducted one sample at a time so that the visual examination was conducted immediately after addition of detergent to the sample. As a result, indications in the table of complete inactivation indicate virtually instantaneous inactivation of the sperm. […] Occasional swimmers means very few, on the order of approximately 1% of the population of sperm present in the sample, indicating approximately 99% of the sperm were inactivated by the detergent."}}, "data": [{"compound": "CCCCCCCCCCCCOS(=O)(=O)[O-].[Li+]", "note": "[LDS, lithium dodecyl sulfate]", "values": [{"measurement": "anti-papillomavirus activity in the C127 focus assay", "setting": "BPV-1", "value": "have anti-papillomavirus activity"}]}, {"compound": "CCCCCCCCCCCC(=O)O", "note": "[Lauric Acid, lauric acid]", "values": [{"measurement": "anti-papillomavirus activity in the C127 focus assay", "setting": "BPV-1", "value": "have anti-papillomavirus activity"}]}, {"compound": "CCCCCCCCCCCC(=O)[O-].[Na+]", "note": "[NA+ Lauric Acid, sodium salt of lauric acid]", "values": [{"measurement": "anti-papillomavirus activity in the C127 focus assay", "setting": "BPV-1", "value": "have anti-papillomavirus activity"}]}, {"compound": "Nonoxynol-9 [N-9, reference compound]", "values": [{"measurement": "inactivation of cell-free HIV-1 strains IIIB, BaL and 89.6 (infectivity, β-gal-positive cells)", "setting": "[1]", "value": "inactivated"}, {"measurement": "cell-associated infectivity of HIV-1-infected SupT1 cells", "setting": "[2]", "value": "can reduce the cell-associated infectivity"}, {"measurement": "growth of papillomas (GMD) from treated versus normal CRPV (FIG. 2b)", "setting": "CRPV", "value": "not a difference in the growth of the lesions"}, {"measurement": "Bovine Sperm Motility Following Detergent Addition", "setting": "Bovine sperm; Table 8, 0.0125% detergent", "value": "+++"}, {"measurement": "Bovine Sperm Motility Following Detergent Addition", "setting": "Bovine sperm; Table 8, 0.025% detergent", "value": "−"}, {"measurement": "Bovine Sperm Motility Following Detergent Addition", "setting": "Bovine sperm; Table 8, 0.5% detergent", "value": "−"}, {"measurement": "Bovine Sperm Motility Following Detergent Addition", "setting": "Bovine sperm; Table 8, 1% detergent", "value": "−"}, {"measurement": "Bovine Sperm Motility Following Detergent Addition", "setting": "Bovine sperm; Table 8, 2% detergent", "value": "−"}, {"measurement": "Bovine Sperm Motility Following Detergent Addition", "setting": "Bovine sperm; Table 9, 0.125% detergent", "value": "+++"}, {"measurement": "Bovine Sperm Motility Following Detergent Addition", "setting": "Bovine sperm; Table 9, 0.25% detergent", "value": "+++"}, {"measurement": "Bovine Sperm Motility Following Detergent Addition", "setting": "Bovine sperm; Table 9, 0.5% detergent", "value": "+++"}, {"measurement": "Bovine Sperm Motility Following Detergent Addition", "setting": "Bovine sperm; Table 9, 1% detergent", "value": "++/−"}, {"measurement": "Bovine Sperm Motility Following Detergent Addition", "setting": "Bovine sperm; Table 9, 2% detergent", "value": "−"}]}]}
